Data: patent US20160199517A1, “MRI EVALUATION OF HETEROGENEOUS TISSUE” (The Board of Trustees of the Leland Stanford Junior …, priority 2015, published 2016)

Test system: Ca^2+ channel
Experiment: MEMRI signal modulated by Ca2+ channel activity in single cell culture
Assay type: cell-based, human
Conditions: cells labelled with Mn^2+; Ca^2+ channel antagonist or agonist

## (s)-Bay K8644
  MEMRI signal: increased
